Results reported in ChEMBL document CHEMBL1159093, “Discovery and optimization of RO-85, a novel drug-like, potent, and selective P2X3 receptor antagonist” (Bioorg Med Chem Lett, 2010).

Assays:
[1] = target: T1, P2X purinoceptor 3 (Rattus norvegicus, UniProt P49654); experiment: Antagonist activity at rat P2X3 receptor expressed in CHO cells; format: functional, cell-based
T1 sequence (P49654 whole entry): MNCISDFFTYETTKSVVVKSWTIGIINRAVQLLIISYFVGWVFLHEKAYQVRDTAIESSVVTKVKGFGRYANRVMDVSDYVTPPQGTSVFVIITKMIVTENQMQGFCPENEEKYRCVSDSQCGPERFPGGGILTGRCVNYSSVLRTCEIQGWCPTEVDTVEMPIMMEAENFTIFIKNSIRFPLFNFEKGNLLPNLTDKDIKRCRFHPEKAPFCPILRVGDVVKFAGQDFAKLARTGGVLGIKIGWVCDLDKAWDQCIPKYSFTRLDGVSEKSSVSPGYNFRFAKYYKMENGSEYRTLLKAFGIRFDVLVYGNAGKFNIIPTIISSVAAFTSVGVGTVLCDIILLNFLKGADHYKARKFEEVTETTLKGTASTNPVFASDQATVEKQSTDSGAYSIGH

[2] = target: T2, P2X2/P2X3 heterotrimeric receptor (Homo sapiens, UniProt P56373+Q9UBL9); experiment: Antagonist activity at human P2X2/P2X3 receptor expressed in human 1321N1C cells; format: functional, cell-based
T2 sequence (Q9UBL9 whole entry): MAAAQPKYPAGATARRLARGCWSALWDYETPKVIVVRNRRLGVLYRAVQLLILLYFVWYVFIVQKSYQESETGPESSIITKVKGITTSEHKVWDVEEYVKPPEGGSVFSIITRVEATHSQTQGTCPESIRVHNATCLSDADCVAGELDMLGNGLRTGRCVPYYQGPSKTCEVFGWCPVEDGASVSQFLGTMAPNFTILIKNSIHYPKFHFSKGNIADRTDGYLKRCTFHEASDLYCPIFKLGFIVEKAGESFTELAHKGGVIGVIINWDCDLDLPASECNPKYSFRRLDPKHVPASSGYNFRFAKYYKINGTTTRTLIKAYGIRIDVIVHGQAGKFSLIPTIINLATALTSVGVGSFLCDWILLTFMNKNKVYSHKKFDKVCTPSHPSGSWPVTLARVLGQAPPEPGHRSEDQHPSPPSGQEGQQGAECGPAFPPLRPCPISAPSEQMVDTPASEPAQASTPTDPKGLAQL
T2 sequence (P56373 whole entry): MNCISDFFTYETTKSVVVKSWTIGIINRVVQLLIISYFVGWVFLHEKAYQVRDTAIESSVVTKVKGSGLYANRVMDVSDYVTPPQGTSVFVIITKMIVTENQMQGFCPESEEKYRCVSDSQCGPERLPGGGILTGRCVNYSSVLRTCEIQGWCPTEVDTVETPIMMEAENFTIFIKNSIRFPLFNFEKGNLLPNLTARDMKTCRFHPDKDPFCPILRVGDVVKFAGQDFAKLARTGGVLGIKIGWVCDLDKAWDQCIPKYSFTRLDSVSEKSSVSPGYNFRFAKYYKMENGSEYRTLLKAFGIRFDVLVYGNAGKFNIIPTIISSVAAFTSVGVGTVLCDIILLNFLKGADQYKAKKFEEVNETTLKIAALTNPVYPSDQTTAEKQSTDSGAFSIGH

[3] = Protein binding in rat plasma; format: ADME, cell-free; conditions: read-out: PPB (converted)
[4] = target: Cytochrome P450 3A4 (Homo sapiens, UniProt P08684); experiment: Inhibition of CYP3A4; format: ADME
[5] = target: Cytochrome P450 2D6 (Homo sapiens, UniProt P10635); experiment: Inhibition of CYP2D6; format: ADME
[6] = target: P2X purinoceptor 1 (Homo sapiens, UniProt P51575); experiment: Antagonist activity at P2X1 receptor; format: functional
[7] = target: P2X purinoceptor 2 (Homo sapiens, UniProt Q9UBL9); experiment: Antagonist activity at P2X2 receptor; format: functional
[8] = target: P2X purinoceptor 4 (Homo sapiens, UniProt Q99571); experiment: Antagonist activity at P2X4 receptor; format: functional
[9] = target: P2X purinoceptor 5 (Homo sapiens, UniProt Q93086); experiment: Antagonist activity at P2X5 receptor; format: functional
[10] = target: P2X purinoceptor 6 (Homo sapiens, UniProt O15547); experiment: Antagonist activity at P2X6 receptor; format: functional
[11] = target: P2X purinoceptor 7 (Homo sapiens, UniProt Q99572); experiment: Antagonist activity at P2X7 receptor; format: functional
P2X purinoceptor 7, sequence (Q99572 whole entry): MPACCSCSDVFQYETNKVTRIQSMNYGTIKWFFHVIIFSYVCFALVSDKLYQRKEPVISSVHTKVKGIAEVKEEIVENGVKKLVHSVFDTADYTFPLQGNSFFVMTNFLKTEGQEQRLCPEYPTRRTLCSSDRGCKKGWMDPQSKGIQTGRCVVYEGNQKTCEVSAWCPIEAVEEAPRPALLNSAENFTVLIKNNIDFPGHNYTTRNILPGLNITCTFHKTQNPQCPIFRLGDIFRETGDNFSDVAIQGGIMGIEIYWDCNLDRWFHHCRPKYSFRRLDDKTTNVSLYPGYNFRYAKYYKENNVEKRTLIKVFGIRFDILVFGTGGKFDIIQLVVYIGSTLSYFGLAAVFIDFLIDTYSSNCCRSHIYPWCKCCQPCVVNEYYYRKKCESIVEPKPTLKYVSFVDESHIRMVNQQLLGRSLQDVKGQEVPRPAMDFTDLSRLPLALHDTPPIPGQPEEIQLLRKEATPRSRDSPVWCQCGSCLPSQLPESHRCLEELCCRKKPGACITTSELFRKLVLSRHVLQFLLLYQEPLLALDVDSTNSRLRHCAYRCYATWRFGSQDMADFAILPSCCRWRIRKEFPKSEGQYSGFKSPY

P2X purinoceptor 6, sequence (O15547 whole entry): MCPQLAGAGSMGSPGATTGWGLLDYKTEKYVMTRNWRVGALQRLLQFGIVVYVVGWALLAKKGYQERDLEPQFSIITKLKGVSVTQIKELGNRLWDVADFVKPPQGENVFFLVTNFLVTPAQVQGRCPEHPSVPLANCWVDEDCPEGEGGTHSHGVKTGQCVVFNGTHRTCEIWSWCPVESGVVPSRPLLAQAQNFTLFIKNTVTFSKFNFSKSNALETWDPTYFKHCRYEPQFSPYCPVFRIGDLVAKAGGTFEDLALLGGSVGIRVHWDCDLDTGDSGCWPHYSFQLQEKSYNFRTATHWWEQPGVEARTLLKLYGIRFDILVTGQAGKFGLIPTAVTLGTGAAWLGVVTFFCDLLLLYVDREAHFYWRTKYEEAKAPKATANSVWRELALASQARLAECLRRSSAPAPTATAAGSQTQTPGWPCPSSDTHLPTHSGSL
P2X purinoceptor 4, sequence (Q99571 whole entry): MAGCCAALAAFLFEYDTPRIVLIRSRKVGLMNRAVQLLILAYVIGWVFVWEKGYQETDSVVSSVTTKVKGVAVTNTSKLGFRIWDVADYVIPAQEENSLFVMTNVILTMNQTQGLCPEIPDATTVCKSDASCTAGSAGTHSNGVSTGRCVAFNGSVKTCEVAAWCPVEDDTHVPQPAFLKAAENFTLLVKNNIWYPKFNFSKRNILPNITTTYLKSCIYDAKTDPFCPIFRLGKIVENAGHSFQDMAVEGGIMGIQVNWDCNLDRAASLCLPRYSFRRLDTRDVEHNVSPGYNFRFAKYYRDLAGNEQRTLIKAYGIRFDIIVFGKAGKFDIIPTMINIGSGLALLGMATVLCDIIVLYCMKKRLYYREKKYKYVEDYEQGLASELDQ
Cytochrome P450 2D6, sequence (P10635 whole entry): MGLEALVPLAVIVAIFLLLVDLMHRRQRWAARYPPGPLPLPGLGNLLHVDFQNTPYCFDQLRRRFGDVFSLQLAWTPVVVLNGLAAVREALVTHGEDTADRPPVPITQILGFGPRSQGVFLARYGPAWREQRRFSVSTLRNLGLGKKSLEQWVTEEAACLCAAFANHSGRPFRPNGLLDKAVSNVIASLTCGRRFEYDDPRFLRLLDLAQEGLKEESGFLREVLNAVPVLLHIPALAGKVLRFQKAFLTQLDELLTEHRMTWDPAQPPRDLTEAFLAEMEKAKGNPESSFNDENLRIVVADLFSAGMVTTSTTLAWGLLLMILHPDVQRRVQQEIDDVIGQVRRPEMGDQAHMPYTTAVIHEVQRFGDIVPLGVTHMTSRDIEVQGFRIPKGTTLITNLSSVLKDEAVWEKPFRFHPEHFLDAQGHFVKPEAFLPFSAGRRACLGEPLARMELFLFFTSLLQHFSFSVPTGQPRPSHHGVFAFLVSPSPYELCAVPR
Cytochrome P450 3A4, sequence (P08684 whole entry): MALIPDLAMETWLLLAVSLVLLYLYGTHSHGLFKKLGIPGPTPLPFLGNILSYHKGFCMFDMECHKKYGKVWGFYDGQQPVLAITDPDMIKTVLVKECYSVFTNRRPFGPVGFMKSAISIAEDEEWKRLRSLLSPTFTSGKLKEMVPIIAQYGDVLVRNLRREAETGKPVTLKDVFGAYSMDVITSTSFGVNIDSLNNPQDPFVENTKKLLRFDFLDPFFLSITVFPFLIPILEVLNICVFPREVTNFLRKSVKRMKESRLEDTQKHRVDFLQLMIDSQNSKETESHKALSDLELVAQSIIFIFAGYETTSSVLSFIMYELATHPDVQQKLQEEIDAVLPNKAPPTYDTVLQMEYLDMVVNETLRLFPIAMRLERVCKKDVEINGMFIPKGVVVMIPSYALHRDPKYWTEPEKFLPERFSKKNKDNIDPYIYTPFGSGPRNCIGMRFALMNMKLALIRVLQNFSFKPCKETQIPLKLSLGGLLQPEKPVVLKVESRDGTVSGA
P2X purinoceptor 5, sequence (Q93086 whole entry): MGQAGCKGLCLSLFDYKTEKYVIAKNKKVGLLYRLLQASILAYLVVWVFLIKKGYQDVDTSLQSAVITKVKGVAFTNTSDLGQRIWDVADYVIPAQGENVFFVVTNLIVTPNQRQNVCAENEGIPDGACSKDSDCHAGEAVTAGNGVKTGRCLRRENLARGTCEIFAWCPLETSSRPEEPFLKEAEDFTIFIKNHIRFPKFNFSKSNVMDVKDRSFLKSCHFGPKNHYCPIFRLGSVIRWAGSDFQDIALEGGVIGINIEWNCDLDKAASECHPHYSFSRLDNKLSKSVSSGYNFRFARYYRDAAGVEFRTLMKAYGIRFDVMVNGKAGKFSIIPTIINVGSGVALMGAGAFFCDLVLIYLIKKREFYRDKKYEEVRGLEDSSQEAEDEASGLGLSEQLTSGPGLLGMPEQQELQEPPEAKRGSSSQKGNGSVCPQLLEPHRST
P2X purinoceptor 1, sequence (P51575 whole entry): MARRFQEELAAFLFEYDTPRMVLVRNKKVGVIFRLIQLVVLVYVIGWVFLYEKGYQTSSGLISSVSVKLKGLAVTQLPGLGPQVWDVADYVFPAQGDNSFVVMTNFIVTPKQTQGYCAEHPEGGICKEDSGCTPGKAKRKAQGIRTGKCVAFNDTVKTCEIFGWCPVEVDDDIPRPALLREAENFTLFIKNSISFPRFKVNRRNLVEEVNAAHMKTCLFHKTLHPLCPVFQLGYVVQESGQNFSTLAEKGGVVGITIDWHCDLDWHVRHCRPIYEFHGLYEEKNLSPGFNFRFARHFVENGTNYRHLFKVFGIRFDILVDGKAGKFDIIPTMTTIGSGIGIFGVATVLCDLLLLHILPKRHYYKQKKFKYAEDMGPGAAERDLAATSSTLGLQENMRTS

Row | SMILES | IC50 [1] [µM] | IC50 [2] [µM] | other results
1 | CCCc1nc(-c2ccc(F)cc2)oc1C(=O)N[C@H](C)CN1CCN(c2ccccn2)CC1 | 1.58 | > 10 | –
2 | CC(CN1CCN(c2ncccn2)CC1)N1Cc2c(c(-c3ccccc3)nn2-c2ccc(F)cc2)C1=O (stereo unspecified) | > 10 | – | –
3 | CCCc1nc(-c2ccc(F)cc2)oc1C(=O)N[C@H](C)CN1CCN(C(=O)C2CC2)CC1 | > 10 | > 10 | –
4 | CCCc1nc(-c2ccc(F)cc2)oc1C(=O)NC(CC)CN1CCN(c2ncccn2)CC1 (stereo unspecified) | > 10 | – | –
5 | CC(=O)N1CCN(CC(C)NC(=O)c2cc3c(-c4ccccc4)nn(C)c3s2)CC1 (stereo unspecified) | 0.1 | – | –
6 | CCCc1nc(-c2ccc(F)cc2)oc1C(=O)NC(C)CN1CCN(c2ccccn2)CC1 (racemic) | > 10 | > 10 | –
7 | CC(=O)N1CCN(CC(C)NC(=O)c2cc3c(-c4ccc(C)cc4)nn(C)c3s2)CC1 (stereo unspecified) | 0.0398 | – | –
8 | CCCc1nc(-c2ccc(F)cc2)oc1C(=O)N[C@H](C)CN1CCN(C(=O)OCC)CC1 | > 10 | > 10 | –
9 | CCCc1nc(-c2ccc(F)cc2)oc1C(=O)N[C@H](C)CN1CCN(c2ccncn2)CC1 | 1.26 | > 10 | –
10 | CCCc1nc(-c2ccc(F)cc2)oc1C(=O)NC(C)CN1CCCN(c2ncccn2)CC1 (stereo unspecified) | 2.51 | – | –
11 | CCCc1nc(-c2ccc(F)cc2)oc1C(=O)N[C@H](C)CN1CCN(S(C)(=O)=O)CC1 | > 10 | > 10 | –
12 | CCCc1nc(-c2ccc(F)cc2)oc1C(=O)N[C@H](C)CN1CCN(c2cnccn2)CC1 | 0.501 | > 10 | –
13 | CCCc1nc(-c2ccc(F)cc2)oc1C(=O)N[C@H](C)CN1CCN(c2ccncc2)CC1 | > 10 | > 10 | –
14 | CCCc1nc(-c2ccc(F)cc2)oc1C(=O)N[C@H](C)CN1CCN(c2ncccn2)CC1 | 0.0501 | > 10 | –
15 | CCCc1nc(-c2ccc(F)cc2)oc1COC(C)CN1CCN(c2ncccn2)CC1 (stereo unspecified) | > 10 | – | –
16 | CCCc1nc(-c2ccc(F)cc2)oc1C(=O)NC(C)CN1CCN(C(C)=S)CC1 (racemic) | 0.1 | > 10 | –
17 | CCCc1nc(-c2ccc(F)cc2)oc1C(=O)N(C)CCN1CCN(c2ncccn2)CC1 | > 10 | – | –
18 | Cc1ccccc1-c1nn(C)c2sc(C(=O)NC(C)CN3CCN(c4ncccn4)CC3)cc12 (stereo unspecified) | 2 | – | –
19 | CC(=O)N1CCN(CC(C)NC(=O)c2cc3c(-c4ccccc4F)nn(C)c3s2)CC1 (stereo unspecified) | 0.0398 | – | –
20 | CCCc1nc(-c2ccc(F)cc2)oc1C(=O)N[C@H](C)CN1CCN(C(C)=O)CC1 | 0.398 | > 10 | –
21 | CCCc1nc(-c2ccc(F)cc2)oc1C(=O)N[C@H](C)CN1CCN(C(=O)NC)CC1 | > 10 | > 10 | –
22 | CCCc1nc(-c2ccc(F)cc2)oc1C(=O)N[C@H](C)CN1CCN(C(=O)c2ccco2)CC1 | 2.51 | > 10 | –
23 | CCCc1nc(-c2ccc(F)cc2)oc1C(=O)NC(C)CN1CCN(c2nccs2)CC1 (racemic) | 0.631 | > 10 | –
24 | CCCc1nc(-c2ccc(F)cc2)oc1C(=O)NC(C)(C)CN1CCN(c2ncccn2)CC1 | > 10 | – | –
25 | CCCc1nc(-c2ccc(F)cc2)oc1CNC(C)CN1CCN(c2ncccn2)CC1 (stereo unspecified) | > 10 | – | –
26 | CCCc1nc(-c2ccc(F)cc2)oc1C(=O)N[C@H](C)CN1CCN(C(N)=O)CC1 | 1 | > 10 | –
27 | CCCc1nc(-c2ccc(F)cc2)oc1C(=O)NCCN1CCN(c2ncccn2)CC1 | > 10 | – | –

More lines, main results first:

Row | IC50 [1] [µM] | IC50 [2] [µM] | SMILES | other results
28 | 0.501 | – | CCn1nc(-c2ccccc2)c2cc(C(=O)NC(C)CN3CCN(c4ncccn4)CC3)sc21 (stereo unspecified) | –
29 | > 10 | > 10 | Cc1c(C(=O)NC(C)CN2CCN(c3ncccn3)CC2)c(-c2ccccc2)nn1-c1ccccc1 (stereo unspecified) | –
30 | > 10 | – | CC(CN1CCN(c2ncccn2)CC1)NC(=O)c1cc2c(-c3ccccc3)nn(C)c2o1 (stereo unspecified) | –
31 | > 10 | > 10 | CC(CN1CCN(c2ncccn2)CC1)NC(=O)c1sc(-c2ccccc2)nc1-c1ccccc1 (stereo unspecified) | –
32 | 0.501 | > 10 | CC(CN1CCN(c2ncccn2)CC1)NC(=O)c1cc(Br)cc(-c2ccc(F)cc2)c1 (stereo unspecified) | –
33 | 5.01 | > 10 | CC(CN1CCN(c2ncccn2)CC1)NC(=O)c1nc(-c2ccccc2)cc(-c2ccccc2)n1 (stereo unspecified) | –
34 | 0.631 | > 10 | CC(CN1CCN(c2ncccn2)CC1)NC(=O)c1oc(-c2ccccc2)cc1-c1ccccc1 (stereo unspecified) | –
35 | 1 | > 10 | CC(CN1CCN(c2ncccn2)CC1)NC(=O)c1cn(-c2ccccc2)nc1-c1ccccc1 (stereo unspecified) | –
36 | 1.26 | > 10 | CC(CN1CCN(c2ncccn2)CC1)NC(=O)c1oc(-c2ccccc2)nc1-c1ccccc1 (stereo unspecified) | –
37 | 1 | > 10 | CC(CN1CCN(c2ncccn2)CC1)NC(=O)c1cc(-c2ccccc2)nn1-c1ccccc1 (stereo unspecified) | –
38 | 0.2 | > 10 | CC(CN1CCN(c2ncccn2)CC1)NC(=O)c1cc2c(-c3ccccc3)nn(C)c2s1 (stereo unspecified) | –
39 | 0.0631 | – | CC(CN1CCN(c2ncccn2)CC1)NC(=O)c1cc2c(-c3ccccc3F)nn(C)c2s1 (stereo unspecified) | –
40 | > 10 | – | CC(CN1CCN(c2ncccn2)CC1)NC(=O)c1cc2c(-c3ccccc3)nn(-c3ccccc3)c2s1 (stereo unspecified) | –
41 | 1.26 | > 10 | CC(CN1CCN(c2ncccn2)CC1)NC(=O)c1cc(-c2ccccc2)nc(-c2ccccc2)c1 (stereo unspecified) | –
42 | 0.501 | > 10 | CCCc1cc(C(=O)NC(C)CN2CCN(c3ncccn3)CC2)cc(-c2ccc(F)cc2)c1 (stereo unspecified) | –
43 | 0.126 | > 10 | CC(CN1CCN(c2ncccn2)CC1)NC(=O)c1cccc(-c2ccc(F)cc2)c1 (stereo unspecified) | –
44 | 2 | > 10 | Cc1c(C(=O)NC(C)CN2CCN(c3ncccn3)CC2)cc(-c2ccccc2)n1-c1ccccc1 (stereo unspecified) | –
45 | 3.98 | > 10 | CC(CN1CCN(c2ncccn2)CC1)NC(=O)c1nc(-c2ccccc2)oc1-c1ccccc1 (stereo unspecified) | –
46 | 2 | > 10 | CCCc1nc(-c2ccc(F)cc2)oc1C(=O)N[C@@H](C)CN1CCN(c2ncccn2)CC1 | –
47 | 1.26 | > 10 | CC(CN1CCN(c2ncccn2)CC1)NC(=O)c1cc(-c2ccccc2)n(-c2ccccc2)n1 (stereo unspecified) | –
48 | 0.251 | > 10 | CCCc1nc(-c2ccccc2)oc1C(=O)NC(C)CN1CCN(c2ncccn2)CC1 (stereo unspecified) | fraction unbound [3]: < 0.01; IC50 [4]: < 10 µM; IC50 [5]: < 10 µM; IC50 [6]: > 10 µM; IC50 [7]: > 10 µM; IC50 [8]: > 10 µM; IC50 [9]: > 10 µM; IC50 [10]: > 10 µM; IC50 [11]: > 10 µM
49 | 10 | – | Cc1nn(-c2ccccc2)c2sc(C(=O)NC(C)CN3CCN(c4ncccn4)CC3)cc12 (stereo unspecified) | –
50 | 0.398 | > 10 | CC(CN1CCN(c2ncccn2)CC1)NC(=O)c1cc(-c2ccc(F)cc2)cc(-c2ccc(F)cc2)c1 (stereo unspecified) | –
51 | 5.01 | > 10 | Cc1nc(-c2ccccc2)oc1C(=O)NC(C)CN1CCN(c2ncccn2)CC1 (stereo unspecified) | –
52 | 2 | > 10 | CC(CN1CCN(c2ncccn2)CC1)NC(=O)c1cc(-c2ccccc2)oc1-c1ccccc1 (stereo unspecified) | –
